# Data published in patent publication US7157472B2, “Neuropeptide Y Y5 receptor antagonists” (Schering Corporation, priority 2002, dated 2007).
# Target: T1, Human NPY Y5 receptors (Homo sapiens, UniProt Q15761)
# T1 construct: expressed in transfected cells; host or cells: CHO cells (membrane protein)
# T1 sequence (Q15761 1-445): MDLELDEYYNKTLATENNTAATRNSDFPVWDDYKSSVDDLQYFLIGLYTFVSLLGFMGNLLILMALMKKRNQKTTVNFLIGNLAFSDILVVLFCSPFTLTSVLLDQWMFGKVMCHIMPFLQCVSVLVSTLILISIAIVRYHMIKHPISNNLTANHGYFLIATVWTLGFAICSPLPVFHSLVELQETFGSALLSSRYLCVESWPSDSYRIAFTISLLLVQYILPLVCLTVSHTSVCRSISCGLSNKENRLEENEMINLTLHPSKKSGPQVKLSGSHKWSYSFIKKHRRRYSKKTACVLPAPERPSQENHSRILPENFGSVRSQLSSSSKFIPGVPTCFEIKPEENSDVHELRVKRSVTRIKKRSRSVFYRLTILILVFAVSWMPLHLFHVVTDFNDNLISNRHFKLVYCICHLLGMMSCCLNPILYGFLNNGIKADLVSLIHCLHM
# Assay: NPY Receptor Binding Assay
# Settings: binding affinity at the human neuropeptide Y Y5 receptor subtype (hY5), expressed in CHO cells, 125I-peptide YY
# Method: NPY Receptor Binding Assay
# Human NPY Y5 receptors were expressed in CHO cells. Binding assays were performed in 50 mM HEPES, pH 7.2, 2.5 mM CaCl2, 1 mM MgCl2 and 0.1% BSA containing 5–10 μg of membrane protein and 0.1 nM […] in a total volume of 200 μl. Non-specific binding was determined in the presence of 1 μM NPY. The reaction mixtures were incubated for 90 minutes at room temperature then filtered through Millipore MAFC glass fiber filter plates which had been pre-soaked in 0.5% polyethleneimine. The filters were washed with phosphate-buffered saline, and radioactivity was measured in a Packard TopCount scintillation counter.
row,Structure (SMILES),Ki [nM]
1,CN(C(=O)Nc1cnn(-c2cc(F)cc(F)c2)c1)C1CCN(S(C)(=O)=O)CC1,2.4
2,CN(C(=O)Nc1cnn(-c2cc(F)cc(F)c2)c1)C1CCN(C(=O)OC(C)(C)C)CC1,1.8
3,CC(C)C(=O)N1CCC(N(C)C(=O)Nc2cnn(-c3cc(F)cc(F)c3)c2)CC1,0.7
4,CCS(=O)(=O)N1CCC(N(C)C(=O)Nc2cnn(-c3cc(F)cc(F)c3)c2)CC1,0.89
5,CC(C)S(=O)(=O)N1CCC(N(C)C(=O)Nc2cnn(-c3cc(F)cc(F)c3)c2)CC1,1.7

# More lines, in order of falling Ki, values ahead:
row,Ki [nM],Structure (SMILES)
1,276,CN(C(=O)Nc1cnn(-c2cc(F)cc(F)c2)c1)C1CCNCC1
2,1.6,CC(=O)N1CCC(N(C)C(=O)Nc2cnn(-c3cc(F)cc(F)c3)c2)CC1
3,1.2,CN(C(=O)Nc1cnn(-c2cc(F)cc(F)c2)c1)C1CCN(C(=O)C2CC2)CC1
4,0.96,CCC(=O)N1CCC(N(C)C(=O)Nc2cnn(-c3cc(F)cc(F)c3)c2)CC1
